Laboratory results: the OligoGym collection
“And” between values parts separate entries of the source, which are not always exact repeats. Identical values can stand only once. After the bases stand the sugars from the 5' end (letter, count) and the backbone: PS all phosphorothioate, else s phosphorothioate and o phosphodiester by linkage. Methylation of C is not given here. e = 2'-O-(2-methoxyethyl) (MOE); d = 2'-deoxy (DNA)

Molecular target: DGAT2
Settings: ASO

Row | Sequence | target mRNA inhibition (HepG2, 2.5 µM) | target mRNA inhibition (HepG2, 10 µM) | target mRNA inhibition (HepG2, 0.12 µM) | target mRNA inhibition (HepG2, 20 µM)
1 | CAGGTAGAGTTCTATTGCTT (sugars e5 d10 e5, PS) | 68% and 55% | 89% and 82% |  | 
2 | ACCAGCTGCAAGGATGACCT (sugars e5 d10 e5, PS) |  |  | 49% | 
3 | TTGTCCTGGTCCCAGTACTT (sugars e5 d10 e5, PS) | 68% | 88% |  | 
4 | GGCTTGGAGTAGGGCACCAG (sugars e5 d10 e5, PS) |  |  | 56% | 
5 | AAGATATAGTTCCTGGTGGT (sugars e5 d10 e5, PS) |  |  | 41% | 
6 | TAGCCTGGCTTTGATAACCC (sugars e5 d10 e5, PS) |  |  | 42% | 
7 | TAGCCAGGTAAGGCCGTATG (sugars e5 d10 e5, PS) |  |  | 56% and 60% | 
8 | CTGCCATTTAATGAGCTTCA (sugars e5 d10 e5, PS) |  | 94% and 95% and 89% |  | 
9 | CAGTGGGCCCCAGGTGGCTC (sugars e5 d10 e5, PS) |  |  | 46% | 
10 | CAGGAAGGCACAGAAAAGTG (sugars e5 d10 e5, PS) |  |  | 28% | 
11 | GCCTTGGGAAGTCTCTCATA (sugars e5 d10 e5, PS) | 0% | 58% |  | 
12 | ATCCGGACTGAATGTCACCT (sugars e5 d10 e5, PS) | 80% and 72% | 84% and 91% |  | 
13 | GCTCAGAGACTCAGCCGCAC (sugars e5 d10 e5, PS) | 41% | 60% | 86% | 47%
14 | CCGGAGTAGGCGGCTATGAG (sugars e5 d10 e5, PS) |  |  | 37% | 
15 | GGTTGTGTGTCTTCACCAGC (sugars e5 d10 e5, PS) | 0% |  | 64% and 70% | 
16 | AGGACCCACTGGAGCACTGA (sugars e2 d13 e5, PS) |  |  | 75% | 
17 | GCTAAGCTTATTAGGTGTCT (sugars e5 d10 e5, PS) | 75% and 73% | 85% and 83% |  | 
18 | ACAAAGTCTATCAGGATGCA (sugars e5 d10 e5, PS) | 53% | 91% |  | 

Row | Sequence | target mRNA inhibition (HepG2, 2.5 µM) | target mRNA inhibition (HepG2, 10 µM) | target mRNA inhibition (HepG2, 0.12 µM) | target mRNA inhibition (HepG2, 20 µM)
19 | CAGCCTGGACAAGTCCTGCC (sugars e2 d13 e5, PS) |  |  | 72% | 
20 | CAGAATGAGACAGGCAGCCC (sugars e5 d10 e5, PS) | 37% | 82% |  | 
21 | GTCCTGGAGGGCGGAGAGGA (sugars e5 d10 e5, PS) |  |  | 32% | 
22 | GGGAAGGATACCGCCAATGA (sugars e5 d10 e5, PS) |  |  | 57% | 
23 | GATTATTCTAAAACTCAAAT (sugars e5 d10 e5, PS) |  |  | 0% | 
24 | GGGATGATAAACACTAAGGT (sugars e5 d10 e5, PS) |  |  | 37% | 
25 | AGGACACCTGGAGCTGCGGC (sugars e5 d10 e5, PS) | 42% | 84% |  | 
26 | GAGTCTGTGCTGCATCCATG (sugars e5 d10 e5, PS) |  |  | 48% | 
27 | AGGGAGGCCTTGCACTTACC (sugars e5 d10 e5, PS) |  |  | 13% | 
28 | AGTTTCGGACCCACTGTGAC (sugars e5 d10 e5, PS) |  |  | 63% | 
29 | TGTCCTAGTGCCCCAGGGAG (sugars e5 d10 e5, PS) | 48% | 79% |  | 
30 | TGGCTGGGAGGAGTCCAGCA (sugars e5 d10 e5, PS) |  |  | 10% | 
31 | GCCTGGACAAGTCCTGCCCA (sugars e3 d14 e3, PS) | 45% and 42% | 89% | 84% | 48%
32 | CTGGACAAGTCCTGCCCATC (sugars e2 d13 e5, PS) |  |  | 58% | 
33 | ACTTCATTCTCTCCAAAGGA (sugars e5 d10 e5, PS) |  |  | 45% | 
34 | GCCTGGGAACTTCTTGCTCA (sugars e5 d10 e5, PS) |  |  | 47% | 
35 | GAGATGGTGATAAGGCAGCA (sugars e5 d10 e5, PS) | 46% and 50% | 80% |  | 
36 | CTGCCACCTTCCAGGGAATA (sugars e5 d10 e5, PS) |  |  | 27% | 
